For series [1], the system named is human colon carcinoma cell line, SW-480. The experiment in a line: Sulforhodamine B (SRB) tumor cell growth inhibition assay. The following applies: SW-480 cells, six days continuous exposure; for inhibition at 100 µM: Homo sapiens, SW480, 144 h. The class given is cell-based. The protocol:
The compounds of this invention were assayed for their growth inhibitory activity on the human colon carcinoma cell line, SW-480 obtained from ATCC (Rockville, Md.), to ascertain the degree of growth inhibition (Skehan et al., J. Natl. Cancer Instit. 82:1107-1112, 1990). Growth inhibition of this cell line is indicative of a benefit on precancerous lesions and neoplasms. The cell line and growth assay employed for such experiments are well characterized, and are used to evaluate the anti-neoplastic properties of compounds (Piazza, Cancer Research Vol. 57, pp. 2452-2459, 1997). The assay is used by the United States National Cancer Institute in its screening program for new anti-cancer drugs.
Drug stock solutions were made in 100% DMSO and were then diluted with RPMI media for cell culture testing. All drug solutions were prepared fresh on the day of testing. The cultured cells were obtained at passage #99 and grown in RPMI media supplemented with 5% fetal calf serum, and 2 mM glutamine, […] penicillin, 100 U/ml streptomycin, and 0.25 μg/ml amphotericin. The cultures were maintained in a humidified atmosphere of 95% air and 5% CO2 at 37° C. The cultures were passaged at preconfluent densities using a solution of 0.05% trypsin and 0.53 mM EDTA. Cells were plated at 1000 cells/well for 96 well flat-bottom microtiter plates.
Tumor cell growth inhibition was assessed using the Sulforhodamine B (SRB) protein binding assay. In this assay, tumor cells were plated in 96-well plates and treated with drug-containing media for six days (continuous exposure). For each plate, 6 wells were designated as no treatment controls, six wells as vehicle (0.1% DMSO) controls, and the remaining wells for drug dilutions with three wells per drug concentration. At the end of the exposure period, the cells were fixed and stained with sulforhodamine B, a protein binding dye. The dye was then solubilized, and the optical density of the resulting solution was determined on a 96-well plate reader. The mean optical density of the treated wells was then divided by the mean optical density in the control wells (6 wells of each) to determine the effect of the drug on the cells. Dye intensity is proportional to the number of cells or amount of protein per well. The resultant “percent inhibition” values, which then represents the degree of growth inhibition, for the indicated compounds from the Examples are tabulated in Table 1.
For one compound of this invention, an IC50 value was determined. An IC50 value is equivalent to the concentration of compound needed to inhibit tumor cell growth by 50%. The IC50 value was obtained graphically by plotting and connecting the mean growth inhibition values for each drug concentration tested. The experiment included three wells per drug concentration. Concentration was plotted on a log scale on the X-axis.

Series [2] has as its target T1, purified cyclooxygenase Type 1 (COX I) (Ovis aries, UniProt P05979).
T1 construct: The COX I was purified from ram seminal vesicles; from tissue; host or cells: ram seminal vesicles
T1 sequence (P05979 25-600): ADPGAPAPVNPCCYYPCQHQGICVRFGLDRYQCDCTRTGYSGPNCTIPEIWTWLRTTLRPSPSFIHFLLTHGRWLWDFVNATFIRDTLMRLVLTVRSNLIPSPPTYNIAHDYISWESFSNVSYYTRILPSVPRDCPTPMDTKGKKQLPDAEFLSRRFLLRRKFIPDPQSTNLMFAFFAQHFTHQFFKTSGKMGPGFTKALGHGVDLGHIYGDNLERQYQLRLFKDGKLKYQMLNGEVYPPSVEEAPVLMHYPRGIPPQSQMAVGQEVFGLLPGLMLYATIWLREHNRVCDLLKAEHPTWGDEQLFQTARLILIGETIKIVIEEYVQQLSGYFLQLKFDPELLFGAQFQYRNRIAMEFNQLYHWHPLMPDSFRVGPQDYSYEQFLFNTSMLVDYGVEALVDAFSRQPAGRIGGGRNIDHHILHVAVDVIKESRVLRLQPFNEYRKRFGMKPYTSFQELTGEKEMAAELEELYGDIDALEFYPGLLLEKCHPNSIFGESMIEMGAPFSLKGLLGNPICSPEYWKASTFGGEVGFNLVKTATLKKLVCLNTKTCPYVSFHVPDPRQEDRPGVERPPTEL
The experiment in a line: Cyclooxygenase (COX I) inhibition, purified enzyme. The class given is biochemical. The following applies: 100 μM compound, arachidonic acid 100 μM, 2.0 min at 37° C., COX I from ram seminal vesicles. The protocol: COX I catalyzes the formation of prostaglandins and thromboxane by the oxidative metabolism of arachidonic acid. Compounds of this invention, as well as a positive control, (sulindac sulfide) were evaluated to determine whether they inhibited purified cyclooxygenase Type 1 (see Table 3 below).
The COX I was purified from ram seminal vesicles, as described by Boopathy, R. and Balasubramanian, J. 239:371-377, 1988. COX I activity was assayed as described by Evans, A. T. et al., “Actions of Cannabis Constituents on Enzymes Of Arachidonate Metabolism Anti-Inflammatory Potential,” Biochem. Pharmacol., 36:2035-2037, 1987. Purified COX I was incubated with arachidonic acid (100 μM) for 2.0 min at 37° C. in the presence or absence of test compounds. The assay was terminated by the addition of TCA, and COX I activity was determined by absorbance at […].

As for `c1ccc(CSc2nnc(-c3ccccc3)c3ccccc23)cc1` [Example 1, 1-Benzylthio-4-Phenylphthalazine], the melting point (as a rule, the temperature of the solid-liquid transition) was found to be 92 °C. For the same compound, 100 µM produced 85% inhibition in series [1]. Moreover, at 100 µM the inhibition in series [2] was 30%.

Consider `C=CCSc1nnc(-c2ccccc2)c2ccccc12` [Example 2, 1-(2-Propenylthio)-4-Phenylphthalazine], for which the melting point worked out at 83 °C. The inhibition – broadly, how much of the control response was suppressed – at 100 µM in series [1] worked out at 87%. For the same compound, the inhibition at 100 µM in series [2] worked out at 62%.

As for `CSc1nnc(-c2ccccc2)c2ccccc12` [Example 3, 1-Methylthio-4-Phenylphthalazine], the melting point turned out to be 147 °C. Besides, the inhibition at 100 µM in series [1] is < 50%. In series [2], the inhibition at 100 µM worked out at 73%.

`Clc1cccc(CSc2nnc(-c3ccccc3)c3ccccc23)c1` [Example 4, 1-(3-Chlorobenzylthio)-4-Phenylphthalazine] displayed a melting point of 85 °C. The compound further gave an inhibition at 100 µM in series [1] of 81%. The inhibition at 100 µM in series [2] was < 25%.

Regarding `Fc1ccc(CSc2nnc(-c3ccccc3)c3ccccc23)cc1` [Example 11, 1-(4-Fluorobenzylthio)-4-Phenylphthalazine], the melting point was 104 °C. In series [1], this compound came in with an inhibition at 100 µM of 76%. Besides, in series [2], the inhibition at 100 µM is < 25%.

Regarding `O=S(=O)(Cc1ccccc1)c1nnc(-c2ccccc2)c2ccccc12` [Example 18, 1-(Benzylsulfonyl)-4-Phenylphthalazine], in series [2], testing at 100 µM gave an inhibition of 81%.

With `COC(=O)Cc1nnc(Sc2ccccc2)c2ccccc12` [Example 19, Methyl-2-(4-Phenylthiophthalazinyl)acetate], in series [1], the “% Growth Inhibition at 100 μM” value is recorded as 61%. Also, in series [2], the “COX I % Inhibition (100 μM)” value is listed as <25%.

For `c1ccc(-c2nnc(SCc3ccc4ccccc4c3)c3ccccc23)cc1` [Example 20, 1-(2′-Naphthylmethylthio)-4-Phenylphthalazine], the “% Growth Inhibition at 100 μM” value in series [1] is on record as <50%. In series [2], the “COX I % Inhibition (100 μM)” value is given as <25%.

With `CC(C)(C)OC(=O)CSc1nnc(-c2ccccc2)c2ccccc12` [Example 21, 1-(t-Butyl 2′Mercaptoacetate)-4-Phenylphthalazine], the “% Growth Inhibition at 100 μM” value in series [1] was 51%.

As for `Clc1cccc(CSc2nnc(-c3ccccn3)c3ccccc23)c1` [Example 22, 1-(3-Chlorobenzylthio)-4-(2-Pyridyl)-Phthalazine], the inhibition at 100 µM in series [1] was 88%; in series [2] it was < 25%.

Turning to `CCSc1nnc(-c2ccccc2)c2ccccc12` [Example 35, 1-Ethylthio-4-Phenylphthalazine], the melting point is 93 °C.

In series [2], `CSc1ccc(/C=C2/C(C)=C(CC(=O)O)c3cc(F)ccc32)cc1` [Sulindac sulfide, sulindac sulfide, reference compound] showed an inhibition at 100 µM of 97%.

The values are drawn from patent publication US6486158B1, “[4,5]-fused-3,6-disubstituted-pyridazines with sulfur-containing substituents in position three for the treatment of neoplasia” (Cell Pathways, Inc., priority 1998, dated 2002).
